Test results reported in patent US20240416137A1, “PERSONALIZED BIOELECTROMAGNETIC THERAPEUTICS” (OCTANE INNOVATION INC., priority 2021, published 2024).
“Also recorded” adds a separate entry of the source.

Tested on: MDA-MB-231 cells
Assay: MDA-MB-231 proliferation culture, cell counts with cisplatin and/or EMF exposure
Type: cell-based, human
Settings: for reduction of cell number (cell count): cisplatin 20 μM, positive control, no EMF exposure, 5 days culture
Description: MDA-MB-231 cells, a human triple-negative breast cancer cell line, were obtained at passage 40 (Sigma: 92020424). The culture media used was high glucose DMEM (Gibco: 31053-028) supplemented with 1% GlutaMAX™ (Gibco: 35050-061) and 10% fetal bovine serum (Gibco).
Cells were thawed from frozen (−150° C.), placed in a tube with warm media and spun down for 5 minutes at 240×g. After pelleting the cells, the media was removed, and the cells resuspended and seeded into a T225 flask with 45 mL of media. Cells were placed in an incubator set to 37° C. and 5.0% CO2. Media was exchanged every 2-3 days. Cells proliferated until they reached 80-90% confluency. Upon reaching this threshold. cells were passaged. Cells were washed with DPBS and detached using TrypLE Express (Gibco). The detached cells were neutralized, centrifuged, and seeded in culture vessels at a density of 10,000 cells/cm^2.
For experimental harvests cells were detached as when passaging and neutralized with media. A 100 μL aliquot was taken and used for cell counts. Cells were counted on a NC-200 Nucleocounter (ChemoMetec). The remaining dissociated cells were centrifuged for 2 minutes at 4000 RPM. Following centrifugation, the supernatant was aspirated, and the cell pellets were immediately frozen at −80° C. for future RNA extraction.
Cisplatin is a platinum-based chemotherapy drug that inhibits DNA synthesis. Cisplatin is used in the treatment of many cancers, including breast cancer. Cisplatin (Millipore-Sigma: 232120) was dissolved in DPBS with 140 mM NaCl at a concentration of 1 mg/mL and stored at room temperature, protected from light. The solution was further diluted in culture media to obtain the desired concentration for experiments. DPBS with 140 mM NaCl was used as a vehicle control. Cisplatin at 20 μM was used as a positive control as this concentration reduced the cell number by more than 90%. Lower concentrations of 2 μM and 0.667 μM (one tenth and one thirtieth the concentration of the positive control, respectively) were used in combination with PEMF stimulation.
Cells were exposed, as previously described for mesenchymal stem cells, to a spatially uniform, time-varying magnetic field using Helmholtz coils. A description of the exposure system (coils, signal generator, incubators, etc.) is described in Example One.
Table 3 contains the parameters describing four different fields covering a wide range of shapes, intensities and frequencies. The two sinusoids are simple sine waves with no offset. The pulse waveform has a 10% duty cycle, creating sudden, large changes in the field's magnetic flux density (B). Finally, Experiment 4 consists of pairs of triangular waves with increasing separation equivalent to a decreasing frequency from 36 Hz to 10 Hz. The waveform consists of 15 pairs and has a period of approximately 900 ms. Positive results with Experiments 3 and 4 (described below) ledto repeating the exposures with the addition of a chemotherapy drug cisplatin). Additionally, Experiments 3 and 4 were also performed with “healthy” chondrocytes.
Chemotherapy drugs, including cisplatin, are a commonplace and proven method of treating cancer tumours despite a plethora of side effects. Large doses of these drugs can be a significant monetary and health concern for many patients so any method of reducing the dosage with an adjunct therapy is welcome. To test the combined effect of cisplatin and EMF exposure, two low concentrations (2 μM and 0.667 μM) of cisplatin were added to the culture media of MDA-MB-231 cells subjected to Experiment 3 and 4 exposures. Additionally, cells were cultured with 20 μM of cisplatin and no exposure as a “positive” control. […] The exposed cell groups are plotted relative to the unstimulated vehicle sample and when cultured with the vehicle show the same decrease in cell count as in Figure H (without vehicle). […]

For `N.N.[Cl][Pt][Cl]` [cisplatin, Cisplatin], the “effect on cell growth of adding EMF exposure to cisplatin” value (cisplatin 2 μM and 0.667 μM plus EMF exposure Experiment 3 or 4, statistically significant vs cisplatin alone) was “further inhibited”, the “effect on proliferation / cell count” value (cisplatin 20 μM (high concentration), no EMF stimulation) was “drastic impact on the cell count; also recorded: inhibitory” and the “reduction of cell number (cell count)” value was 90%. For the same compound, the “reduction of cell number (cell count)” value (listed as Cisplatin) was “more than 90%”, the “reduction of cell counts by combined treatment (cisplatin + EMF exposure)” value (cisplatin at 10% of positive control concentration (2 μM) with EMF exposure (Experiment 3 or 4), relative to negative control, 5 days) was “more than 80%” and the “effect on normalized cell count” value (low concentrations of cisplatin (2 μM and 0.667 μM), relative to unstimulated vehicle) was “significantly lowered cell counts”.
